Results: BindingDB's records for doi:10.1021/jm00166a002 (Berlex Laboratories, 1990)

Target: Beta-1 adrenergic receptor (Canis familiaris)
Test: In vitro Beta-1 adrenergic receptor affinity in partially purified membrane fractions from canine cardiac tissue using […] (4.5 nM)

Row | SMILES | IC50 [µM]
1 | CN(c1ccc(OCC(O)CNCCOc2ccc(-n3ccnc3)cc2)cc1)S(C)(=O)=O (configuration not stated) | 21
2 | Cc1nccn1-c1ccc(OCCNCC(O)COc2ccc(N(C)S(C)(=O)=O)cc2)cc1 (configuration not stated) | 18
